Structures are written as SMILES. In brackets after ≈: the same amount, converted by molar mass.

Series [1] can be described thus: Toxicity against brine shrimp. The series is classed as organism-based. To be noted: artemia, in vivo.
The subject of series [2] is A549. Nature of the series: Cytotoxicity against human A549 cells after 7 days by MTT assay. The class given is functional. As to conditions: A549, 168 h, read-out: ED50 (the source's name). In general terms: Tetrazolium dyes change colour on reduction, which living cells bring about.
For series [3], the system named is MCF7. The experiment in a line: Cytotoxicity against human MCF7 cells after 7 days by MTT assay. The series is classed as functional. To be noted: MCF7, 168 h, read-out: ED50 (the source's name).
The subject of series [4] is HT-29. Nature of the series: Cytotoxicity against human HT-29 cells after 7 days by MTT assay. The class given is functional. As to conditions: HT-29, 168 h, read-out: ED50 (the source's name).
For series [5], the system named is A498. Nature of the series: Cytotoxicity against human A498 cells after 7 days by MTT assay. The series is classed as functional. To be noted: A498, 168 h, read-out: ED50 (the source's name).
The subject of series [6] is PC-3. The experiment in a line: Cytotoxicity against human PC3 cells after 7 days by MTT assay. The class given is functional. As to conditions: PC-3, 168 h, read-out: ED50 (the source's name).
In series [7] the test system is MIA PaCa-2. Nature of the series: Cytotoxicity against human MIAPaCa2 cells after 7 days by MTT assay. The class given is functional. To be noted: for EC50: Homo sapiens, MIA PaCa-2, 168 h, read-out: ED50 (the source's name).

Broadly, the LC50 is the concentration lethal to half of the exposed cells or organisms. Read a high LC50 as a less lethal substance. In series [1], `COc1cccc2c1C(=O)c1c(O)c3c(c(O)c1C2=O)C[C@@](O)(C(=O)CO)C[C@@H]3O[C@H]1C[C@H](N)[C@H](O)[C@H](C)O1` [DOXORUBICIN] registered an LC50 of 0.26 µg/mL (≈ 0.478 µM). The EC50 was 0.0053 µg/mL (≈ 0.00975 µM) in series [2]; 0.2 µg/mL (≈ 0.368 µM) in series [3]; 0.02 µg/mL (≈ 0.0368 µM) in series [4]; 0.01 µg/mL (≈ 0.0184 µM) in series [5]; 0.032 µg/mL (≈ 0.0589 µM) in series [6]; 0.018 µg/mL (≈ 0.0331 µM) in series [7].
Molecule `CCCCCCCCCCCC[C@H](O)[C@@H]1CC[C@H]([C@H](O)CCCCCC(=O)CCCC[C@@H](O)CC2=C[C@H](C)OC2=O)O1` [MOSIN C] had an LC50 in series [1] of 0.15 µg/mL (≈ 0.252 µM). Moreover, the EC50 in series [2] is 0.6 µg/mL (≈ 1.01 µM); in series [3], > 1 µg/mL; in series [4], > 1 µg/mL; in series [5], > 1 µg/mL; in series [6], > 1 µg/mL. This molecule displayed an ED50 in series [7] of 1.2 ×10⁻⁴ ug/ml.
In series [1], `CCCCCCCCC/C=C\CC[C@@H](O)[C@H]1CC[C@H]([C@H](O)CCCCCC(=O)CCCC[C@@H]2CC(CC(C)=O)C(=O)O2)O1` (mixture of isomers) had an LC50 of 0.44 µg/mL. Besides, the EC50 in series [2] is > 1 µg/mL; in series [3] it was > 1 µg/mL; in series [4], > 1 µg/mL; in series [5], > 1 µg/mL; in series [6], 0.032 µg/mL; in series [7], 0.0022 µg/mL.
In the case of `CCCCCCCCCCCC[C@@H](O)[C@H]1CC[C@H]([C@H](O)CCCCCC(=O)CCCC[C@@H](O)CC2=C[C@H](C)OC2=O)O1`, the LC50 in series [1] amounted to 0.41 µg/mL (≈ 0.689 µM). Besides, the EC50 in series [2] is 0.27 µg/mL (≈ 0.454 µM); in series [3], > 1 µg/mL; in series [4], > 1 µg/mL; in series [5], > 1 µg/mL; in series [6] it was 0.0096 µg/mL (≈ 0.0161 µM). For the same molecule, the ED50 in series [7] was found to be 2.4 ×10⁻⁴ ug/ml.
As to `CCCCCCCCCCCC[C@H](O)[C@H]1CC[C@H]([C@H](O)CCCCCC(=O)CCCC[C@@H](O)CC2=C[C@H](C)OC2=O)O1` [MOSIN B], in series [1], the LC50 worked out at 0.29 µg/mL (≈ 0.487 µM). Further, the EC50 in series [2] is 0.94 µg/mL (≈ 1.58 µM); in series [3], > 1 µg/mL; in series [4], > 1 µg/mL; in series [5], > 1 µg/mL; in series [6] it was 0.35 µg/mL (≈ 0.588 µM). For the same molecule, the ED50 in series [7] turned out to be 2.5 ×10⁻⁴ ug/ml.

(Values after ChEMBL document CHEMBL1146439, “Novel mono-tetrahydrofuran ring acetogenins, from the bark of Annona squamosa, showing cytotoxic selectivities for the human pancreatic carcinoma cell line, PACA-2” (J Nat Prod, 1997).)
